The values below come from patent US20250186475A1, “METHODS OF TREATING MEDICAL CONDITIONS USING ISLATRAVIR OR A RELATED COMPOUND” (ROME Therapeutics, Inc., priority 2022, published 2025).

As a reminder, the IC50 is the concentration needed to halve the response being measured.

The target in test [1] is T1, recombinant MBP-tagged LINE1 protein (238-1061) (Homo sapiens, UniProt O00370).
T1 construct: recombinant MBP-tagged LINE1 protein (238-1061); MBP; made in house
The experiment in a line: Homogeneous time-resolved fluorescence (HTRF) LINE1 RT assay. In kind it is biochemical. The settings on record: 25° C., 60 minutes, read-out: IC50 for inhibition of LINE1 reverse transcriptase. The procedure: The LINE1 reverse transcriptase homogeneous time-resolved fluorescence (HTRF) assay was performed with recombinant MBP-tagged LINE1 protein (238-1061) (generated and purified according to procedures in Dai L. et al. BMC Biochemistry 2011; 12:18) in a 384-well format. Test compound was serially diluted in DMSO and further diluted in the assay buffer (50 mM Tris-HCl, 50 mM KCl, 10 mM MgCl2, 10 mM DTT, pH 8.1) to achieve a final DMSO concentration of 1%. The serially diluted compound was mixed with 64 ng/well of LINE1 enzyme, 5 nM of pre-annealed template/biotin-primer pair (synthesized at Generay Biotechnology), 10 nM of Fluorescein-12-dATP fluorescent probe (Perkin Elmer), and 1 μM dGTP/dCTP/dTTP (Thermo Fisher Scientific) in the assay buffer. The template/biotin-primer sequences were as follows:
After incubating at 25° C. for 60 minutes, the detection reagent (20 mM EDTA with streptavidin-terbium cryptate, Cisbio Bioassay) in the PPI buffer (Cisbio Bioassay) was added, and the mixture was incubated at 25° C. for 30 minutes. At the end of the incubation, fluorescence was read at ex/em=337/485 nm and ex/em=337/520 nm on an Envision 2104 plate reader (Perkin Elmer). The fluorescence ratio at 520/485 nm was used for the calculation. […] The IC50 was calculated by fitting the compound dose inhibition curve with a 4-parameter non-linear regression equation.

Test [2] concerns SK-OV-3 cells. The test is described as follows: Cancer cell viability assay with 3D cell colonies (CellTiter-Glo), SK-OV-3. In kind it is cell-based. The conditions noted are these: 3D tumorsphere growth, 7 days. How it is done: (§1) Ovarian cancer cell line SK-OV-3 cells were cultured in McCoy's 5a media containing 10% FBS. Ovarian cancer cell line OVCAR-8 cells were cultured in RPMI media containing 10% FBS. Additional cancer cell lines were cultured in the following media: • Ovarian cancer SW756 cells—L-15 (100% air)+10% FBS • Esophageal cancer TE-1 cells—RPMI-1640+10% FBS • Esophageal cancer KYSE-410 cells—RPMI-1640+5˜10% FBS • Esophageal cancer KYSE-70 cells—RPMI-1640+10% h.i.FBS. • Pharyngeal cancer FaDu cells—MEM+0.01 mM NEAA+10% FBS
(§2) Cell colony formation was tested using a 3D methylcellulose-based CellTiter-Glo (CTG) viability assay (Cat. No: G7573, Promega). Briefly, cells were inoculated into 96-well plates (at 1,500 cells per well) into a solution of 0.65% methylcellulose in growth media and incubated overnight at 37° C. in 5% CO2. The next day, serially diluted test compound (islatravir) or positive control (cisplatin, Cat. No. 6J015A89, Qilu Pharma) were added at the indicated concentrations, and the cells were incubated for 7 days. On day seven, 100 μL of CTG reagent was added, and the plates were incubated at room temperature for 20 min. Luminescence was read on an Envision Multi Label Reader according to manufacturer's instructions. IC50 values were determined using the following calculation: […]

The subject of test [3] is OVCAR-8 cells. The experiment in a line: Cancer cell viability assay with 3D cell colonies (CellTiter-Glo), OVCAR-8. In kind it is cell-based. The settings on record: 3D tumorsphere growth, 7 days. The procedure: as §1, §2
Test [4] deals with SW756 cells. The experiment in a line: Cancer cell viability assay with 3D cell colonies (CellTiter-Glo), SW756. It counts as cell-based. The settings on record: 7 days. How it is done:
as §1, §2
On the technique in general: Cellular ATP, detected with luciferase, serves as a proxy for viable cell number.

Test [5] concerns TE-1 cells. The test is described as follows: Cancer cell viability assay with 3D cell colonies (CellTiter-Glo), TE-1. The settings on record: 7 days. In kind it is cell-based. The procedure:
as §1, §2

Test [6] has as its system KYSE-410 cells. The experiment in a line: Cancer cell viability assay with 3D cell colonies (CellTiter-Glo), KYSE-410. In kind it is cell-based. The settings on record: 7 days. The procedure:
as §1, §2

Test [7] has as its system KYSE-70 cells. The test is described as follows: Cancer cell viability assay with 3D cell colonies (CellTiter-Glo), KYSE-70. It counts as cell-based. The settings on record: 7 days. The procedure: as §1, §2
In test [8] the test system is FaDu cells. The experiment in a line: Cancer cell viability assay with 3D cell colonies (CellTiter-Glo), FaDu. It counts as cell-based. The conditions noted are these: 7 days. How it is done: as §1, §2
Test [9] concerns the target T2, LINE1 reverse transcriptase (Homo sapiens, UniProt O00370).
T2 construct: expressed in transfected cells
The test is described as follows: Transient artificial-intron Cis LINE1 reporter assay. It counts as cell-based. The settings on record: HEK 293 cells, FLuc/RLuc ratio, read-out: IC50 for inhibition of FLuc luminescence. The procedure:
Intron-disrupted Firefly luciferase (FLuc) expression cassettes were generated as described by Xie, Y. et al. “Characterization of L1 retrotransposition with high-throughput dual-luciferase assays,” Nucleic Acid Res. (2011) Vol. 39, No. 3, e16. In addition, the plasmid contained an intact Renilla luciferase (RLuc) expression cassette on the vector backbone, in order to normalize transfection efficiency and measure potential cell toxicity.
HEK 293 cells were seeded in 96-well plates at 1,000 cells/well in 55 μL and grown for 24 hours. Cells were transfected with FuGeneHD (Promega) following the manufacturer's protocol. Each well received 0.133 ng plasmid, 0.4 μL FuGeneHD reagent, and 4.5 μL GlutaMAX-I-supplemented Opti-MEM I reduced-serum medium (Invitrogen). Cells were simultaneously treated with test compound serially diluted starting at 100 μM in a 3-fold dilution dose response.
Luminescence was measured using the Dual-Glo Luciferase Assay System (Promega) following the manufacturer's instructions. The ratio between FLuc and RLuc gene expression was used to report LINE1 activity.

The target of test [10] is T2, LINE1 reverse transcriptase. The test is described as follows: Stable artificial-intron Cis LINE1 reporter assay (HeLa Tet-On 3G). It counts as cell-based. The conditions noted are these: HeLa L1 reporter cells, doxycycline induced, 72 h; read-out: IC50 for inhibition of FLuc luminescence. From the text: A stable HeLa Tet-On 3G (Takara, cat no 631183) cell line expressing a bi-directional inducible LINE1 construct was generated as described in Xie, Y. et al. “Cell division promotes efficient retrotransposition in a stable L1 reporter cell line,” Mobile DNA (2013) 4:10. Single cell clones were screened for high Luciferase expression and the highest expression Firefly expressing clone was chosen for compound testing.
Test compound was serially diluted in DMSO and spotted in 96-well plates. Subsequently the HeLa L1 artificial-intron reporter cells were plated into the compound-containing wells (8,000 cells/well), and the cells were induced for reporter expression with doxycycline (Sigma cat no D9891) at a final concentration of 500 ng/mL. Luminescence was measured 72 h after plating using the Dual-Glo Luciferase Assay System (Promega cat no E2940) following the manufacturer's instructions. The Firefly Luciferase activity was used to report LINE1 activity.
For orientation: Reporter assays use an easily measured gene product as a stand-in for the process of interest.

Test [11] has as its system IFN-β production in PBMCs. The experiment in a line: Decitabine-stimulated human PBMC assay. It counts as cell-based. The conditions noted are these: PBMCs with anti-CD3/anti-CD28 and 10 μM decitabine, 5 days. How it is done:
EasySep buffer (32 mL, Stem Cell, cat. #20144) was used to dilute 8 mL of LRSC buffy coat (from fresh Leukopak) with gentle mixing. The diluted buffy coat (20 mL) was transferred into each of two SepMate 50 tubes, and the tubes were filled with 15 mL of Lyphoprep (Stem Cell, ct. #07851) density gradient. The SepMate tubes were then centrifuged at […] for 10 minutes at room temperature with the brake on. The top layer of supernatant was collected in SepMate tubes by quickly pouring it into a new 50 mL conical tube. The PBMCs were washed with EasySep buffer x2 by centrifuging at 300G for 5 minutes. The cells were resuspended in 30 mL of EasySep and centrifuged at 100G for 5 minutes with the brake off, and the platelets were removed. The cells were then resuspended in 6 mL of 1×RBC lysis buffer (InvitroGen) and incubated at 37° C. for 5 minutes. Then, 25 mL of EasySep buffer was mixed into the tube and it was centrifuged at 300G for 5 minutes. The cells were resuspended in 10 mL of EasySep buffer and the cells were then counted with Cellometer (AO/PI). The PBMCs were resuspended in RPMI1640 (ThermoFisher)+10% FBS (HyClone)+p/s at 3×10^6/mL. The PBMCs (100 μL, 300 k PBMCs) were then seeded in a 96-well flat bottom microplate (Corning) that had been precoated with 100 μL of anti-CD3 antibody (10 μg/mL in PBS, Biolegend) or PBS at 4° C., one day before the assay was commenced. […]

In test [12] the test system is THP1-Dual™ KO-TREX1 cells. The test is described as follows: Cellular assay for altering IFN production in THP1 TREX1 KO cells. The settings on record: in the presence of 1 μM 5-aza-2′-deoxycytidine, five days. In kind it is cell-based. The procedure:
(§3) THP1-Dual™ KO-TREX1 cells were purchased from Invivogen (cat #thpd-kotrex). The THP1-Dual™ KO-TREX1 cells were cultured in RPMI 1640, 10% heat-inactivated fetal bovine serum, 25 mM HEPES, 10 μg/mL Blasticidin, and 100 μg/mL Zeocin. THP1-Dual™ KO-TREX1 cells were treated with a dose titration of test compound in the presence of 1 μM 5-aza-2′-deoxycytidine (Sigma, cat #189825). Type 1 Interferon and cell viability were assessed after five days of treatment.
(§4) Stock solution of test compound was prepared in DMSO followed by a three-fold dilution in DMSO. Additional 50× dilution was prepared in cell culture media for each dilution. 10 μL of diluted test compound was then added to a 384-well plate.
THP1-Dual™ KO-TREX1 cells were treated with 1 μM 5-aza-2′-deoxycytidine. THP1-Dual™ KO-TREX1 cells (50 μL) were added to each well of the 384-well plate containing test compound titration at 10,000 cells/well. Cells were incubated at 37° C., 5% CO2 in a humidified incubator for five days. On day five, 20 μL of cell supernatant was transferred to a 384-well, white-walled plate, followed by addition to each well of 50 μL of QUANTI-LUC solution containing stabilizer. Luminescence was detected on a plate reader according to manufacturer's instructions. […]

For test [13], the system named is THP1-Dual™ KO-TREX1 cells. The test is described as follows: CellTiter-Glo cell viability in THP1 TREX1 KO cells. It counts as cell-based. The settings on record: Homo sapiens, 120 h, in the presence of 1 μM 5-aza-2′-deoxycytidine, five days, read-out: CellTiter-Glo inhibition IC50. How it is done:
as §3, §4
THP1-Dual™ KO-TREX1 cells were treated with 1 μM 5-aza-2′-deoxycytidine. THP1-Dual™ KO-TREX1 cells (50 μL) were added to each well of the 384-well plate containing test compound titration at 10,000 cells/well. Cells were incubated at 37° C., 5% CO2 in a humidified incubator for five days. […] Luminescence was detected on a plate reader according to manufacturer's instructions. […]
The remaining cells were assessed for cell viability by adding 30 μl of CellTiter-Glo (Promega, G9683) solution to each well, and placed on a shaker for 10 minutes at room temperature. Luminescence was detected on a plate reader, according to manufacturer's instructions. […]

Consider `C#C[C@]1(COP(=O)(O)OP(=O)(O)OP(=O)(O)O)O[C@@H](n2cnc3c(N)nc(F)nc32)C[C@@H]1O`, for which the IC50 in test [1] was determined as 12.4 nM.

Turning to `N.N.[Cl][Pt][Cl]` [Cisplatin, cisplatin], the IC50 in test [2] was 2.24 µM; in test [3] it was 3.29 µM; in test [4] it was at most 10 µM; in test [5], at most 10 µM; in test [6], over 30 µM; in test [7], at most 10 µM. This compound also gave an IC50 in test [8] of at most 10 µM.

Take `C#C[C@]1(CO)O[C@@H](n2cnc3c(N)nc(Cl)nc32)C[C@@H]1O` [4′-ethynyl-2-chloro-2′-deoxyadenosine]: the values for the IC50 in test [9], in test [10] and in test [13] were 8 nM, 3 nM and over 20000 nM, respectively. Also, the “production of IFN-β” value in test [11] is on record as “activated production of IFN-β”. In addition, the “changes in IFN levels (% induction)” value in test [12] is “induction of IFN”.
